Values of other authors as cited in patent US5215744A, “Methods for the treatment of tumors” (Boehringer Ingelheim GmbH, priority 1987, dated 1993).

Assays:
[1] = system: antimitotic effect of interferon and its natural killer cell activating activity; details: with interferon; cited from earlier work
[2] = system: human promyelocytic leukemic cell line; details: cited from earlier work
[3] = system: HM-Kim mammary carcinoma; details: rat, in vivo; cited from earlier work
[4] = system: interferon antitumor / growth inhibitory effect; details: cited from earlier work
[5] = system: PDE; details: cited from earlier work
[6] = system: syngeneic Wilms Tumor (nephroblastoma); details: rat, in vivo; cited from earlier work
[7] = system: C1300 neuroblastoma; details: mouse, in vivo; cited from earlier work
[8] = system: neoplastic cells; details: cited from earlier work
[9] = system: cAMP; details: cited from earlier work

Compound: OCCN(CCO)c1nc(N2CCCCC2)c2nc(N(CCO)CCO)ncc2n1 [mopidamole, 2,6-bis-(diethanolamino)-4-piperidino-pyrimido[5,4-d]pyrimidine]
- potentiation of interferon antimitotic effect and NK cell activating activity [1]: potentiates the antimitotic effect of interferon and its natural killer cell activating activity
- reverse transformation of malignant cells [2]: promotes a reverse transformation of the malignant cells to normal
- spontaneous lung metastases [3]: diminish significantly spontaneous lung metastases
- synergism with interferon ([4]; Ambrus et al. 1983): no synergism was seen
- synergism with α and γ interferon ([4]; Wolf et al.): no synergistic inhibitory effect
- effect on antitumor effect of leukocyte and fibroblastic interferon ([4]; tissue culture): potentiates the antitumor effect of leukocyte and fibroblastic interferon in tissue culture
- effect on growth inhibition by human fibroblastic β-interferon ([4]; with β-interferon): potentiates the growth inhibitory effect of human fibroblastic β-interferon
- PDE induced decomposition of cAMP [5]: inhibition of PDE induced decomposition of cAMP
- spontaneous lung metastases [6]: diminish significantly spontaneous lung metastases
- spontaneous lung metastases [7]: diminish significantly spontaneous lung metastases
- 3H-thymidine incorporation [8]: inhibition of 3H-thymidine incorporation into neoplastic cells
- mitotic rate [8]: direct inhibition of the mitotic rate
- cAMP levels [9]: increase cAMP levels
